According to PubChem BioAssay (NCI):
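Grown in 96-well plates, cells were treated for 48 hours with each compound at five concentrations. Insufficient inhibition: endpoint recorded as highest concentration tested. At the GI50, growth is halved. TGI marks complete inhibition of growth.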

Experiments:
Assay in all cases: DTP human tumour cell line panel, 48 h
ACHN renal = tested on: ACHN renal
SN12C renal = tested on: SN12C renal
A498 renal = tested on: A498 renal
IGROV1 ovarian = tested on: IGROV1 ovarian
SW-620 colon = tested on: SW-620 colon
HOP-62 NSCLC = tested on: HOP-62 NSCLC
SNB-75 CNS = tested on: SNB-75 CNS
TK-10 renal = tested on: TK-10 renal
SR leukemia = tested on: SR leukemia
HT29 colon = tested on: HT29 colon

Row | SMILES | TGI (ACHN renal) [µM] | TGI (SN12C renal) [µM] | TGI (A498 renal) [µM] | TGI (IGROV1 ovarian) [µM] | TGI (SW-620 colon) [µM] | TGI (HOP-62 NSCLC) [µM] | TGI (SNB-75 CNS) [µM] | TGI (TK-10 renal) [µM] | TGI (SR leukemia) [µM] | TGI (HT29 colon) [µM] | GI50 (ACHN renal) [µM] | GI50 (SN12C renal) [µM] | GI50 (A498 renal) [µM] | GI50 (IGROV1 ovarian) [µM] | GI50 (SW-620 colon) [µM] | GI50 (HOP-62 NSCLC) [µM] | GI50 (SNB-75 CNS) [µM] | GI50 (TK-10 renal) [µM] | GI50 (SR leukemia) [µM] | GI50 (HT29 colon) [µM]
1 | Cn1[nH]cc2ccc3nc4ccccc4c(=O)c3c21 | 98.6 | > 100 | 67.7 | > 100 | > 100 | > 83.9 | 94.5 | 72.2 | > 100 | > 100 |  |  |  |  |  |  |  |  |  | 
2 | COc1ccc(CN2C(=O)[C@@H]3Cc4c(OC)c(C)c(OC)c(OC)c4[C@H](/C2=C\c2cc(OC)c(OC)c(C)c2OC)N3C(=O)OC(C)C)cc1 | > 100 | > 100 | > 100 | > 100 | > 100 | > 100 | > 100 | > 100 | > 100 | > 100 |  |  |  |  |  |  |  |  |  | 
3 | CC(C)(C)[Si](C)(C)OCC1OC(n2cnc3c(=O)[nH]cnc32)CC1O (configuration not stated) | > 100 | > 100 | > 100 | > 100 | > 100 | > 100 | > 100 | > 100 | > 100 | > 100 |  |  |  |  |  |  |  |  |  | 
4 | CN1CCC2(CC1)N=C(SCC(=O)Nc1cnc3ccccc3c1)C(c1ccc(Br)cc1)=N2 | 3.39 | 4.99 | 14.9 | 4.19 | 3.65 | 14.7 | 9.65 | 4.49 | 5.29 | 3.64 | 1.7 | 2.1 | 3.96 | 1.77 | 1.88 | 3.42 | 2.04 | 1.99 | 2.07 | 1.85
5 | O=C(O)CCC(c1ccccc1)(c1ccccc1)c1ccccc1 | > 100 | > 100 | > 100 | > 100 | > 100 | > 100 | > 100 | > 100 | > 89 | > 100 |  |  |  | 71.2 |  |  | > 100 |  |  | 
6 | Cn1c(CCCC(=O)O)nc2cc(N(CCCl)CCCl)ccc21 | > 100 | > 100 | > 75 | > 100 | > 100 | > 100 | > 100 | > 100 | > 100 | > 100 | > 77.3 | 45.1 | > 32.6 | 70 | 78.4 | > 76.3 | > 83.5 | > 91.3 | 40.4 | > 100
7 | O=C(/C=C/c1ccc(Cl)c(Cl)c1)c1ccccc1Cl | 28.6 | 30.8 | 31.4 | 24.2 | 9.16 | 34.2 | 27.5 | 47.9 | 36.7 | 12.8 |  |  |  |  |  |  |  |  |  | 
8 | COc1ccc(OC)c(Nc2nc3nonc3nc2Nc2cccc(Br)c2)c1 | 13.3 | 7.07 | 4.11 | 42.5 | > 100 | 7.43 | 8.12 | 16.5 | 10.9 | > 100 | 0.927 | 0.405 | 0.461 | 2.87 | 0.86 | 1.62 | 1.25 | 0.988 | 2.36 | 1.13
9 | C[P+]1(Cc2ccccc2)CCCC1 | > 100 | > 100 | > 100 | > 100 | > 100 | > 100 | > 100 | > 100 | > 100 | > 100 |  |  |  |  |  |  |  |  |  | 
10 | Cc1cccc(C)c1NC(=O)CCC(=O)NC(N)=NC#N | > 100 | > 100 | > 100 | > 100 | > 100 | > 100 | > 100 | > 100 | > 100 | > 100 |  |  |  |  |  |  |  |  |  | 
11 | NS(=O)(=O)c1ccc(N=Nc2ccc[nH]c2=O)cc1 | > 100 | > 100 | > 100 | > 100 | > 100 | > 100 | > 100 | > 100 | > 100 | > 100 |  |  |  |  |  |  |  |  |  | 
12 | O=C(/C=C/c1ccccc1)c1cccc2ccccc12 | 14.3 | 15.4 | 6.75 | 10.9 | 6 | 13.5 | 7.27 | 14.2 | 3.75 | 12.9 | 3.66 | 4.29 | 2.3 | 3.4 | 2.42 | 4.25 | 2.19 | 4.04 | 1.17 | 3.69
13 | O=C1/C(=C\c2ccc(F)cc2)CN(C(=O)c2ccccc2F)C/C1=C\c1ccc(F)cc1 | 3.6 | 3.37 | 6.71 | 3.62 | 1.73 | 4.66 | 10.9 | 4.27 | 3.03 | 1.35 | 1.61 | 1.68 | 2.02 | 1.82 | 0.428 | 2.04 | 2.64 | 1.97 | 0.32 | 0.373
14 | CC12OC(CC(O)C1O)n1c3ccccc3c3c4c(c5c6ccccc6n2c5c31)C(=O)N(CCN1CCOCC1)C4=O (configuration not stated) | 1.69 | 6.12 | 3.27 | 8.65 | 7.42 | 4.22 | 5.37 | 5.48 | 6.76 | 6.83 | 0.526 | 1.02 | 0.838 | 0.98 | 0.626 | 1.27 | 0.765 | 0.953 | 0.176 | 0.968
15 | CN1CCN(CCCNC(=O)c2c3c(n4ccccc24)C(=O)c2ncccc2C3=O)CC1 | 5.49 | 3.61 | 25.1 | 5.06 | 9.49 | 13.5 | 16.3 | 40.9 | > 26.2 | 2.96 | 0.866 | 1.42 | 10 | 1.28 | 0.578 | 0.966 | 3.92 | 5.13 | 0.529 | 0.612
16 | CC(=O)OC1CCC2OOC1O2 (configuration not stated) | > 100 | > 100 | > 100 | > 100 | > 100 | > 100 | > 100 | > 100 | > 100 | > 100 |  |  |  |  |  |  |  |  |  | 
